Results: patent US5980939A, “Cyclosporin-containing pharmaceutical composition” (Chong Kun Dang Corp., priority 1996, dated 1999)

Legend:
[1] = Experiment 3: permeability of hydrophilic cosurfactant to the gelatin shell, content in soft capsule in course of time; type: physicochemical; details: for Change of the content of hydrophilic cosurfactant: solvent:Cremophor RH40 3:7 in soft capsule
Excerpt: Propylene glycol which contains --OH group in its molecular structure and therefore has high hygroscopic and hydrophilic properties is distributed in the capsule shell according to the movement of water present in the contents and gelatin capsule during encapsulation and drying procedures and therefore, is permeated to the capsule shell in course of time. According to this, since the constitutional ratio of the contents is greately varied at the early stage, of manufacturing procedures of the capsule preparation, the stability of the preparation cannot be ensured and further the reliable therapeutic effect cannot be obtained. […] Hereinafter, the permeability to the gelatin shell of the hydrophilic cosurfactant used in the soft capsule according to the present invention was determined and compared with the shell permeability of propylene glycol, transcutol, glycofurol or dimethylisosorbide used as the hydrophilic cosurfactant in the soft capsule according to the prior art. The content of each solvent in each soft capsule preparation was analyzed by gas chromatography and HPLC. […] At regular intervals, the constant amount of the sample was taken and then analyzed.
Column: Ultra 2; Column temperature: 23° C.; Detector: FID; Detector temperature: 270° C.; Injection temperature: 275° C.; Carrier gas: He; Injection volume: 5 μl; Internal standard: octyl alcohol
Column: 10% PEG 20M; Column temperature: 160° C.; Detector: FID; Injection temperature: 200° C.; Carrier gas: N2; Injection volume: 1 μl; Internal standard: pentadecanoic acid methyl ester
Column: Ultra 2; Column temperature: 230° C.; Detector: FID; Detector temperature: 270° C.; Injection temperature: 270° C.; Carrier gas: He; Injection volume: 5 μl; Internal standard: pentadecanoic acid methyl ester

[2] = species and route not given; cited from earlier work
rat = details: per oral; cited from earlier work
[3] = Experiment 1: reactivity of hydrophilic cosurfactant with the gelatin shell by thermoanalyzer (DSC/DDSC); type: physicochemical; details: soft gelatin capsule filled with solvent, stored at room temperature, 3 months
Experimental: Test for the reactivity of the hydrophilic cosurfactant according to the present invention with the gelatin shell in comparison to the reactivity of the solvents used in the prior art using a thermoanalyzer: The reactivities of the hydrophilic cosurfactant used according to the present invention and propylene glycol used as the hydrophilic cosurfactant in the prior preparation with the gelatin shell were determined using a thermoanalyzer. Each of the hydrophilic cosurfactants and mineral oil as the control solvent was filled in the soft gelatin capsule. The filled capsule was stored at room temperature. At regular intervals, the capsules were cut open by a sharp open blade, and the contents were removed by washing with ether and then about 20 mg of gelatin shell was accurately weighed and analyzed. The programed heating rate was 10° C./minute under nitrogen purge from 25 °C. to 300° C.

mouse = details: intravenous injection; cited from earlier work

Row | Compound | stability of the cosurfactant content in soft capsule (in words) [1] | Change of the content of hydrophilic cosurfactant ([1]; day 0) | Change of the content of hydrophilic cosurfactant ([1]; day 5) | Change of the content of hydrophilic cosurfactant ([1]; day 15) | Change of the content of hydrophilic cosurfactant ([1]; day 30) | Change of the content of hydrophilic cosurfactant ([1]; day 60) | Change of the content of hydrophilic cosurfactant ([1]; day 90) | Change of the content of hydrophilic cosurfactant ([1]; day 120) | LD50 [2] | LD50 (rat) | DSC/DDSC pattern of gelatin shell versus shell of capsule filled with mineral oil [3] | LD50 (mouse)
1 | CC1COC(=O)O1 (racemic) [Propylene carbonate, (±)-4-methyl-1,3-dioxolan-2-one] | at least comparable stability to dimethylisosorbide and is more stable than propylene glycol, transcutol and glycofurol | 30.1 wt % | 29.8 wt % | 28.6 wt % | 28.4 wt % | 28.7 wt % | 27.4 wt % | 28.0 wt % | 29000 mg/kg | – | – | –
2 | CO[C@H]1CO[C@H]2[C@@H]1OC[C@H]2OC [Dimethylisosorbide, 1,4:3,6-dianhydro-2,5-dimethyl-D-glucitol] | – | 30.0 wt % | 28.2 wt % | 29.1 wt % | 28.7 wt % | 28.0 wt % | 26.6 wt % | 25.8 wt % | – | 5.63 mL/kg | – | –
3 | CC(O)CO (stereo not drawn) [Propylene glycol, 1,2-propylene glycol] | – | 29.9 wt % | 21.9 wt % | 22.8 wt % | 21.0 wt % | 22.4 wt % | 21.5 wt % | 19.5 wt % | – | 21000 to 33700 mg/kg | shows a new peak | –
4 | CCOCCOCCO [Transcutol, diethyleneglycol monoethyl ether] | – | 30.1 wt % | 22.1 wt % | 23.1 wt % | 21.9 wt % | 22.1 wt % | 21.7 wt % | 20.3 wt % | – | – | – | –
5 | CC(C)=O [acetone] | – | – | – | – | – | – | – | – | – | 10.7 mL/kg | – | –
6 | CC#N [acetonitrile] | – | – | – | – | – | – | – | – | – | 3800 mg/kg | – | –
7 | c1ccccc1 [benzene] | – | – | – | – | – | – | – | – | – | 3.8 mL/kg | – | –
8 | CC(C)O [isopropanol] | – | – | – | – | – | – | – | – | – | 5800 mg/kg | – | –
9 | tetrahydrofurfurylalcohol polyethylene glycol [Glycofurol] | – | 30.0 wt % | 24.4 wt % | 21.0 wt % | 23.5 wt % | 21.0 wt % | 20.7 wt % | 20.4 wt % | – | – | – | 3.5 mL/kg
